In patent US20220227782A1, “COMPOUND FOR INHIBITING RORyt ACTIVITY, PREPARATION METHOD THEREFOR AND APPLICATION THEREOF” (CELLREGEN (BEIJING) LIFE SCIENCE AND TECHNOLOGY CO., LTD., priority 2019, published 2022):

What was measured:
[1] = CC50 test, median cytotoxic concentration against RORγt-LBD+-Jurkat cells; format: cell-based; settings: human
Description: (§1) EC50 and CC50 tests: EC50 (half maximal (50%) effective concentration) is a half maximal effective concentration against RORγt-LBD+-Jurkat cells, and CC50 (median (50%) cytotoxic concentration) is a median cytotoxic concentration against RORγt-LBD+-Jurkat cells.

IL-17A = assay: Intracellular protein expression of IL-17A (flow cytometer), Th17 cells; format: cell-based; settings: FIG. 21; 1.56, 3.12 and 6.25 μM compound vs solvent group
Description: The compound for inhibiting RORγt activity as described above may be used in preparation of a therapeutic formulation for the treatment of autoimmune diseases, in preparation of a formulation that inhibits formation of a Th17 cell, in preparation of a formulation that inhibits the RORγt transcription activity, or in preparation of a formulation that inhibits transcription and expression of IL17A gene and/or IL17F gene. The compounds having the structural formula (A) has a good inhibitory effect on RORγt activity. […] Therefore, the compound may be used to produce a formulation of corresponding activity inhibitor, and provide a leading structure for the development of therapeutic drugs for autoimmune diseases.
(§2) In the figure, the results of solvent group, 1.56 μM compound group, 3.12 μM compound group, and 6.25 μM compound group are shown from left to right.

[2] = system: RORγt, IL17A, IL-17F mRNA; assay: mRNA expression of RORγt, IL17A and IL-17F in Th17 cell differentiation in vitro; format: cell-based; settings: FIG. 22, 1.56, 3.12 and 6.25 μM compound vs solvent group
Procedure: as §2

RORγt = biological target: T1, RORγt (Homo sapiens, UniProt P51449); assay: EC50 test, inhibition of RORγt transcription activity (luciferase activity reporter system) in RORγt-LBD+-Jurkat cells; format: cell-based; settings: for EC50: half maximal effective concentration against RORγt-LBD+-Jurkat cells
T1 construct: half maximal effective concentration against RORγt-LBD+-Jurkat cells; expressed in transfected cells; host or cells: Jurkat
T1 sequence (P51449 269-508 limits assumed): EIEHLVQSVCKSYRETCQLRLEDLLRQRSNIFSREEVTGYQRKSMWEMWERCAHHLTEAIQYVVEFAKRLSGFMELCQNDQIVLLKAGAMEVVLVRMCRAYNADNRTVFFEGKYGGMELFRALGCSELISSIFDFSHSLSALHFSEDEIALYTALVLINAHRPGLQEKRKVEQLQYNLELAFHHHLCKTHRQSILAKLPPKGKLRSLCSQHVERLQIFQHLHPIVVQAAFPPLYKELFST
Description: as §1

EAE = settings: high concentrations (40 mg/kg); cited from earlier work
Th17 cells = settings: cited from earlier work
other RORs = settings: cited from earlier work

Compound | CC50 [1] | EC50 (RORγt) | further results
Cc1nc(Sc2nnnn2-c2ccccc2)c2c3c(sc2n1)CCCC3 [Compound 6] | 3.98 µM | 2.79 µM | inhibition of intracellular protein expression of IL-17A (in words) (IL-17A): significant inhibitory effects; inhibition of mRNA expression of RORγt, IL17A and IL-17F (in words) [2]: significant inhibitory effects
Cc1nc(Sc2nnnn2-c2ccccc2)c2c3c(sc2n1)CC(C)CC3 (stereo not drawn) [Compound 7] | > 10 µM | > 10 µM | –
CCC1CCc2c(sc3nc(C)nc(Sc4nnnn4-c4ccccc4)c23)C1 (stereo not drawn) [Compound 8] | > 10 µM | > 10 µM | –
CCCC1CCc2c(sc3nc(C)nc(Sc4nnnn4-c4ccccc4)c23)C1 (stereo not drawn) [Compound 9] | > 10 µM | > 10 µM | –
Cc1nc(Sc2nnnn2-c2ccccc2)c2c3c(sc2n1)CC(C(C)(C)C)CC3 (stereo not drawn) [Compound 11] | < 1 µM | 8.25 µM | –
Cc1nc(Sc2nnnn2-c2ccccc2)c2c3c(sc2n1)CC(F)(F)CC3 [Compound 12] | < 1 µM | 1.35 µM | –
Cc1nc(Sc2nnnn2-c2ccccc2)c2c3c(sc2n1)CC(C(=O)O)CC3 (stereo not drawn) [Compound 14] | > 10 µM | > 20 µM | –
Cc1nc(Sc2nnnn2-c2ccccc2)c2c3c(sc2n1)CC(C(=O)NC1CCOCC1)CC3 (stereo not drawn) [Compound 15] | < 10 µM | > 10 µM | –
Cc1cccc(NC(=O)C2CCc3c(sc4nc(C)nc(Sc5nnnn5-c5ccccc5)c34)C2)c1 (stereo not drawn) [Compound 16] | < 10 µM | > 10 µM | –
Cc1nc(Sc2nnnn2-c2ccccc2)c2c3c(sc2n1)CC(C(=O)Nc1ccc(C(C)C)cc1)CC3 (stereo not drawn) [Compound 17] | < 1 µM | > 10 µM | –
Cc1nc(Sc2nnnn2-c2ccccc2)c2c3c(sc2n1)CC(C(=O)NCc1ccccc1)CC3 (stereo not drawn) [Compound 18] | > 10 µM | 12.6 µM | –
Cc1nc(Sc2nnnn2-c2ccccc2)c2c3c(sc2n1)CC(C(=O)Nc1cccc(Cl)c1)CC3 (stereo not drawn) [Compound 19] | < 10 µM | > 10 µM | –
Cc1nc(Sc2nnnn2-c2ccccc2)c2c3c(sc2n1)CC(C(=O)Nc1ccc(Br)cc1)CC3 (stereo not drawn) [Compound 20] | < 10 µM | > 10 µM | –
Cc1nc(Sc2nnnn2-c2ccccc2)c2c3c(sc2n1)CC(C(=O)Nc1nccs1)CC3 (stereo not drawn) [Compound 21] | < 10 µM | > 10 µM | –
Cc1nc(Sc2nnnn2-c2ccccc2)c2c3c(sc2n1)CC(C(=O)Nc1ncc(C)s1)CC3 (stereo not drawn) [Compound 22] | 4.32 µM | 9.06 µM | inhibition of intracellular protein expression of IL-17A (in words) (IL-17A): significant inhibitory effects; inhibition of mRNA expression of RORγt, IL17A and IL-17F (in words) [2]: significant inhibitory effects
Cc1nc(Sc2nnnn2-c2ccccc2)c2c3c(sc2n1)CC(C(=O)Nc1cccnc1)CC3 (stereo not drawn) [Compound 23] | < 5 µM | > 10 µM | –
Cc1nc(Sc2nnnn2-c2ccccc2)c2c3c(sc2n1)CC(C(=O)Nc1ccc(F)cn1)CC3 (stereo not drawn) [Compound 24] | < 10 µM | > 10 µM | –
Cc1nc(Sc2nnnn2-c2ccccc2)c2c3c(sc2n1)CC(C(=O)Nc1nc2ccc(F)cc2s1)CC3 (stereo not drawn) [Compound 25] | < 5 µM | > 10 µM | –
O=C(Cc1nc(Sc2nnnn2-c2ccccc2)c2c3c(sc2n1)CCCC3)Nc1nc2ccccc2[nH]1 [Compound 31] | 9.18 µM | 0.85 µM | inhibition of intracellular protein expression of IL-17A (in words) (IL-17A): significant inhibitory effects; inhibition of mRNA expression of RORγt, IL17A and IL-17F (in words) [2]: significant inhibitory effects; inhibiting RORγt transcription activity (in words) (RORγt; FIG. 20): significant effect
CC(=O)Nc1nc(C)c(S(=O)(=O)Nc2ccc(C(O)(C(F)(F)F)C(F)(F)F)cc2)s1 [SR1001] | – | – | reduction of clinical symptoms of EAE in vivo (EAE): only reduce the clinical symptoms of EAE slightly; inhibition of differentiation of Th17 cells in vitro (Th17 cells): effectively inhibit the differentiation of Th17 cells; selectivity (interaction with other RORs) (other RORs): poor selectivity
